From PMC12024814, “Ruthenium(II)–Arene Complexes with a 2,2′-Bipyridine Ligand as Anti-Aβ Agents” (Biomolecules, 2025)

What was measured:
[1] = target: T1, human serum albumin (HSA) (Homo sapiens, UniProt P02768); assay: Protein binding assay, dansyl glycine (DG) displacement, Sudlow site II; conditions: for Log K (DG), conditional binding constant to serum albumin: dansyl glycine probe, Sudlow site II, Stern–Volmer slope, HSA and DG 2.5 μM, PBS; for Ranking HSA: scale 1 to 5 (1 = best, 5 = worst), binding to HSA
T1 construct: purchased Sigma Aldrich
Experimental: A stock of human serum albumin (HSA, 100 μM) was prepared using PBS, while the probes dansyl glycine (DG) and warfarin (WF) were prepared by initially dissolving them in DMSO and diluting them with PBS until the concentration of DMSO was less than 5%. Solutions of each Ru complex were prepared by initial dissolution in DMSO and subsequent dilution using PBS until the concentration of DMSO was less than 5%. The total volume of each sample was 3.5 mL, where the concentration of HSA and DG/WF was 2.5 μM throughout the experiment. The Ru concentration ranged from 0 μM to 62.5 μM, with an increase of 12.5 μM for each sample. In total, six samples were prepared for each protein binding assay. After preparation, the samples were placed on an IKA Trayster inversion mixer (60 rpm) for 30 s and incubated at approximately 28 °C in a Neslab gp-200 for 15 min, before being placed back on the inversion mixer (60 rpm) for 30 s. All fluorescence measurements for the protein binding assay were made using a PTI QuantiMaster 50, and the samples were measured at room temperature with conditions respective to the probe.
One important consideration for a potential AD therapeutic is its interaction with serum proteins, specifically albumin (HSA). […] To determine the potential association of the prepared Ru complexes with HSA, a protein binding assay was performed. For these studies, the displacement of two fluorometric probes was used to determine the relative affinity of the Ru complexes for two of the established binding sites on HSA. The first probe, warfarin (WF), an anticoagulant, binds selectively to Sudlow site I on HSA [55], while the second probe used was dansyl glycine (DG), which selectively binds to Sudlow site II on HSA [56]. As these are the two major binding sites on the protein, the probes allow for observations of binding events that occur within these hydrophobic pockets. Individually, the probes were initially mixed with HSA, followed by increasing amounts of the respective Ru complexes, whereby the decrease in fluorescence signals from the respective probes (Figures S22–S30) was used to construct a Stern–Volmer plot, where the slope of the line represents the conditional binding constant (K’) for the respective Ru complexes to each site (Figure 8).

[2] = target: T2, Aβ40 (Homo sapiens, UniProt P05067); assay: Thioflavin T (ThT) fluorescence assay of Aβ40 aggregation; type: biochemical; conditions: for relative aggregation of Aβ40 (ThT fluorescence normalized to Aβ40 alone): equimolar 10 µM complex and Aβ40, 10 µM ThT, final 6 h time point, 37 °C; for Ranking ThT: scale 1 to 5 (1 = best, 5 = worst)
T2 construct: Lyophilized Aβ40 was monomerized following previous procedures; purchased GenScript
Experimental: All PBS used in the assay was filtered through a 0.20 μm Titan 3 syringe filter prior to use. The Ru stock solutions initially dissolved about 1.5 mg of each Ru complex in 100 µL DMSO and diluted it to 10 mL with PBS. Thioflavin T (ThT) was prepared in the same manner as the Ru complexes but was filtered prior to use in the assay. Lyophilized Aβ40 was monomerized following previous procedures and stored at −20 °C until use. When removed from the freezer, peptide samples were held on ice for 20 min prior to preparation for the assay. The Aβ40 was mixed with a 15 μL aliquot of DMSO and gently flicked to initiate dissolution. Next, 135 μL PBS was added, and the sample was sonicated until the solution was clear. The concentration of the Aβ40 stock solution was determined using an Implen NanoPhotometer N50 at λ = 280 nm with an extinction coefficient of 1490 M^−1 cm^−1 [27]. Samples were prepared in a 96-well plate by the sequential addition of PBS, Ru, ThT, and Aβ, where the final volume was 150 μL, and the analyte concentrations were 10 μM each. Thioflavin T (ThT) fluorescence was measured using the SpectraMax M3 plate reader with λex = 440 nm and λem = 480 nm. Measurements were taken every 30 min for a total of 6 h, with shaking occurring between each reading.
Each of the prepared Ru complexes was mixed with an equimolar amount of Aβ40 (10 µM), along with ThT (10 µM). Each sample was prepared in triplicate, loaded onto a microwell plate, and incubated at 37 °C with constant agitation to promote aggregation, with fluorescence measurements taken every 30 min for up to 6 h. The resultant fluorescence signals were normalized to the last time point for the samples of Aβ40 alone. After 4 h of incubation, a sharp increase in fluorescence for the peptide alone was observed, signifying that aggregation was occurring (Figure 5). […] Remarkably, the activity shown by RuBA is among the greatest we have measured thus far across a variety of Ru complexes. To confirm this activity, the samples from the ThT assay were subjected to additional analysis, as described below.
Figure 5 ThT fluorescence results following the incubation of equimolar solutions (10 μM) of Aβ40 with the Ru complexes for up to 6 h at 37 °C. The signals were normalized to the positive control of the free peptide in solution at the 6 h time point. The error bars represent the standard deviation observed for each data point for the respective samples.

T1 sequence (P02768 25-609): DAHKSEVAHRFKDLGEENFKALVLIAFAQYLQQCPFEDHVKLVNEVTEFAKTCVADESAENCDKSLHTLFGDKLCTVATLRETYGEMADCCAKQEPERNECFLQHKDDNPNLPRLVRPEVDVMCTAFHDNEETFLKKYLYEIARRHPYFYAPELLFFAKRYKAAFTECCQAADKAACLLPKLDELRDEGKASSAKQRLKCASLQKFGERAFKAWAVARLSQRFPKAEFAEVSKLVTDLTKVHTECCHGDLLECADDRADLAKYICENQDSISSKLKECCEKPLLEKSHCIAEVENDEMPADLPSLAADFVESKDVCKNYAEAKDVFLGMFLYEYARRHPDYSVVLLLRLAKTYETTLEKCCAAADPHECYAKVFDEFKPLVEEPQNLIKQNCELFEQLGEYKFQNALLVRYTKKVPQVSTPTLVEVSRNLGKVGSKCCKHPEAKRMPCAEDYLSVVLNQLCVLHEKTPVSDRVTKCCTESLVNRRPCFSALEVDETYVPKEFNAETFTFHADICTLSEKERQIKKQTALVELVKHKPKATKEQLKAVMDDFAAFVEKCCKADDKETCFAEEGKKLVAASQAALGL
T2 sequence (P05067 672-711 limits assumed): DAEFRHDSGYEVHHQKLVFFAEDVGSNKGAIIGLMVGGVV

Compound | Log K (DG), conditional binding constant to serum albumin [1] | Ranking HSA [1] | relative aggregation of Aβ40 (ThT fluorescence normalized to Aβ40 alone) [2] | Ranking ThT [2]
[Ru(η^6-p-cymene)(4,4′-di-tert-butyl-2,2′-bipyridine)Cl]PF6 [RuBtB] | 3.85 | 1 | 14.3% ± 0.6% | 3
Cc1ccc(C(C)C)cc1.F[P-](F)(F)(F)(F)F.[Cl-].[Ru+2].c1ccc(-c2ccccn2)nc1 [RuB, [Ru(η^6-p-cymene)(2,2′-bipyridine)Cl]PF6] | 3.96 | 3 | 9.0% ± 2.3% | 2
Cc1ccc(C(C)C)cc1.Cc1ccnc(-c2cc(C)ccn2)c1.F[P-](F)(F)(F)(F)F.[Cl-].[Ru+2] [RuBMe, [Ru(η^6-p-cymene)(4,4′-dimethyl-2,2′-bipyridine)Cl]PF6] | 3.99 | 4 | – | 5
[Ru(η^6-p-cymene)(4,4′-diamino-2,2′-bipyridine)Cl]PF6 [RuBA] | 4.07 | 5 | – | 1
[Ru(η^6-p-cymene)(4,4′-dimethoxy-2,2′-bipyridine)Cl]PF6 [RuBMeO] | 3.91 | 2 | 16.1% ± 6.9% | 4
